These results are taken from US9018207B2, “Method of treatment or prophylaxis” (Spinifex Pharmaceuticals Pty Ltd, priority 2004, dated 2015).

Each structure is given as a SMILES string. Entries after “also recorded” stand apart in the source; their conditions may differ.

What all share (type): in vivo, Sprague-Dawley (SD) rats
The subject of assay [1] is rats with a chronic constriction injury (CCI) of the sciatic nerve. The assay is described as follows: Relief of tactile allodynia (von Frey paw withdrawal thresholds) in the ipsilateral (injured) hindpaw of CCI-rats. As to the method: (§1) Adult male Sprague-Dawley (SD) rats were anaesthetized with Zoletil 100® (0.09 ml/200 g) and Xylazil-20™ (0.1 mL/200 g) administered by intraperitoneal (i.p.) injection, and a chronic constriction injury (CCI) of the sciatic nerve was produced according to the method of Bennett and Xie (1988). Briefly, the left common sciatic nerve was exposed at mid-thigh level by blunt dissection through the biceps femoris. Proximal to the trifurcation, 10 mm of nerve was freed of adhering tissue and four loose ligatures (3.0 silk) were tied around the sciatic nerve 1 mm apart). The incision was closed in layers. After surgery, rats received benzylpenicillin (60 mg s.c.) to prevent infection and were kept warm during surgical recovery. Rats were housed singly for 10-14 days prior to AT2 receptor antagonist or vehicle (normal saline) administration. After CCI-surgery, rats were inspected daily with regard to posture of the affected hindpaw, exploring behavior, body weight and water intake, and any signs of autotomy. Whilst under light anaesthesia with CO2/O2 (50:50%), CCI-rats or STZ-diabetic rats received a single bolus injection (200 μL) of one AT2 receptor antagonist (PD123,319 or L-159,686) by the intravenous (i.v.) or the intraperitoneal (i.p.) route, using a 250 μL Hamilton syringe. The test compounds were administered to CCI-rats at 14 days after CCI-surgery and to STZ-diabetic rats at approximately 8-wks after the induction of diabetes with STZ. Relief of tactile (mechanical) allodynia, the defining symptom of neuropathic pain, by each of the test agents, PD123,319 or L-159,686, was quantified using calibrated von Frey filaments as described below. Tactile allodynia was quantified using calibrated von Frey filaments. Rats were placed in wire mesh testing cages (20 cm×20 cm×20 cm) and allowed to acclimatise for approximately […] Von Frey filaments were used to determine the lowest mechanical threshold required for a brisk paw withdrawal reflex. Briefly, the filament that produced the lowest force was applied to the plantar surface of the hindpaw until the filament buckled slightly. Absence of a response after 5 s prompted use of the next filament in an ascending sequence. Filaments used produced a buckling weight of 2, 4, 6, 8, 10, 12, 14, 16, 18 and 20 g and these were calibrated prior to each testing session. […] For CCI-rats, baseline von Frey paw withdrawal thresholds (PWTs) were quantified prior to CCI-surgery, and at 14 days post-surgery immediately prior to drug administration. For STZ-diabetic rats, baseline von Frey PWT values were determined prior to the induction of diabetes with STZ and at 1-2 weekly intervals thereafter for 8 weeks to document the temporal development of tactile allodynia. For all rats, baseline PWTs were the mean of three readings taken, 5 min apart before drug administration and were determined separately for each hindpaw. After administration of each test compound, von Frey PWTs were determined at the following post-dosing times: 0.08, 0.25, 0.5, 0.75, 1, 1.25, 1.5, 2 and 3 h. Paw withdrawal thresholds (PWTs; g) were plotted against time to construct response versus time curves for each of the two test compounds (PD123,319 and L-159,686) for each dose and dosing route. Whilst adult male SD rats were anaesthetized with 3% isoflurane: 97% oxygen, four loose ligatures were tied around one sciatic nerve to produce a unilateral chronic constriction injury (CCI) according to the method of Bennett and Xie (1988, Pain 33: 87-107). Briefly, the left common sciatic nerve was exposed at mid-thigh level by blunt dissection through the biceps femoris. Proximal to the trifurcation, 10 mm of nerve was freed of adhering tissue and four loose ligatures (3.0 silk) were tied around the sciatic nerve 1 mm apart). The incision was closed in layers. After surgery, rats received benzylpenicillin (60 mg s.c.) to prevent infection and were kept warm during surgical recovery. […]

Assay [2] has the same test system. The assay is described as follows: Antinociception (von Frey paw withdrawal thresholds) in the contralateral hindpaw of CCI-rats. The conditions noted are these: i.p. doses up to 30 μg/kg. As to the method: as §1, with “87-107).” for “87-107). Briefly, the left common sciatic nerve was exposed at mid-thigh level by blunt dissection through the biceps femoris. Proximal to the trifurcation, 10 mm of nerve was freed of adhering tissue and four loose ligatures (3.0 silk) were tied around the sciatic nerve 1 mm apart). The incision was closed in layers. After surgery, rats received benzylpenicillin (60 mg s.c.) to prevent infection and were kept warm during surgical recovery.”

The next assay relates to STZ-diabetic rats. The experiment in a line: Relief of tactile allodynia (von Frey paw withdrawal thresholds) in the hindpaws of STZ-diabetic rats (model of PDN). As to the method:
Adult male SD rats were anaesthetized in a manner similar to that described above, to facilitate insertion of a polyethylene cannula (previously filled with 0.1 ml of sterile saline) into the right common jugular vein. Jugular vein cannulae were tested for correct placement by the withdrawal of a small amount of blood. Diabetes was induced following an acute i.v. injection of streptozotocin (STZ) (80 mg/kg) in 0.1 M citrate buffer (pH 4.5) into the jugular vein. Diabetes was confirmed by monitoring the water intake and blood glucose concentration in individual rats. Blood glucose was monitored using either (Glucostix™) or a Precision QID™ test kit.
Consistent with previous studies in the literature (Calcutt et al., 1996, Pain. 68(2-3):293-9), rats that drank more than 100 mL of water per day by 10 days post-STZ injection, were classified as diabetic, and only rats with blood glucose concentrations exceeding 15 mM were included in the subsequent experiments. By comparison, the water intake of control non-diabetic rats was approximately 20 mL per day and blood glucose concentrations were in the range 5-6 mM, consistent with the literature (Calcutt et al., 1996, supra).
Whilst under light anaesthesia with CO2/O2 (50:50%), CCI-rats or STZ-diabetic rats received a single bolus injection (200 μL) of one AT2 receptor antagonist (PD123,319 or L-159,686) by the intravenous (i.v.) or the intraperitoneal (i.p.) route, using a 250 μL Hamilton syringe. The test compounds were administered to CCI-rats at 14 days after CCI-surgery and to STZ-diabetic rats at approximately 8-wks after the induction of diabetes with STZ. Relief of tactile (mechanical) allodynia, the defining symptom of neuropathic pain, by each of the test agents, PD123,319 or L-159,686, was quantified using calibrated von Frey filaments as described below.
Tactile allodynia was quantified using calibrated von Frey filaments. Rats were placed in wire mesh testing cages (20 cm×20 cm×20 cm) and allowed to acclimatise for approximately […] Von Frey filaments were used to determine the lowest mechanical threshold required for a brisk paw withdrawal reflex. Briefly, the filament that produced the lowest force was applied to the plantar surface of the hindpaw until the filament buckled slightly. Absence of a response after 5 s prompted use of the next filament in an ascending sequence. Filaments used produced a buckling weight of 2, 4, 6, 8, 10, 12, 14, 16, 18 and 20 g and these were calibrated prior to each testing session.
For CCI-rats, baseline von Frey paw withdrawal thresholds (PWTs) were quantified prior to CCI-surgery, and at 14 days post-surgery immediately prior to drug administration. For STZ-diabetic rats, baseline von Frey PWT values were determined prior to the induction of diabetes with STZ and at 1-2 weekly intervals thereafter for 8 weeks to document the temporal development of tactile allodynia. For all rats, baseline PWTs were the mean of three readings taken, 5 min apart before drug administration and were determined separately for each hindpaw. After administration of each test compound, von Frey PWTs were determined at the following post-dosing times: 0.08, 0.25, 0.5, 0.75, 1, 1.25, 1.5, 2 and 3 h.
Paw withdrawal thresholds (PWTs; g) were plotted against time to construct response versus time curves for each of the two test compounds (PD123,319 and L-159,686) for each dose and dosing route.
Whilst adult male SD rats were anaesthetized with 3% isoflurane: 97% oxygen, a short polyethylene cannula (0.4 mm ID, 0.8 mm OD) was inserted into the jugular vein to facilitate the intravenous (i.v) administration of a single dose of STZ (75 mg/kg). After removal of the i.v. cannula, the jugular vein was tied off, the wound was closed and topical bupivacaine was applied. Rats received benzylpenicillin (60 mg s.c.) to prevent infection and were kept warm during surgical recovery. […]

Assay [3] deals with rats with a chronic constriction injury (CCI) of the sciatic nerve. The assay is described as follows: Relief of tactile allodynia (von Frey paw withdrawal thresholds) in the ipsilateral (injured) hindpaw of CCI-rats. The conditions noted are these: oral bolus 30 μg/kg vs same dose i.p.
Setting [4] is: CCI-rats, i.p. bolus 3 to 30 μg/kg.
[5] abbreviates: STZ-diabetic rats, i.p. bolus 1.0 to 100 ng/kg.

As for `COc1ccc2c(c1OCc1ccccc1)C[C@@H](C(=O)O)N(C(=O)C(c1ccccc1)c1ccccc1)C2` [PD-126,055], in assay [1] (CCI-rats vs STZ-diabetic rats), the “doses required to produce significant relief of tactile allodynia in CCI-rats compared with STZ-diabetic rats” value is given as “considerably larger doses”. In assay [1] (CCI-rats, 30 μg/kg, irrespective of dosing route (oral or i.p.)), the duration of action is given as about 3 h. For the same compound, in assay [1] (setting [4]), the “anti-allodynia (relief of tactile allodynia) in the ipsilateral hindpaw” value was “dose-dependent onset of anti-allodynia; also recorded: dose-dependent relief of tactile allodynia”, the “onset of anti-allodynia in the ipsilateral hindpaw” value is reported as “rapid” and the “time of peak responses post-dosing” value is 0.75 to 1 h. Also, in assay [1] (CCI-rats, i.p., doses larger than 3 μg/kg), the duration of action is reported as over 3 h. In assay [1] (CCI-rats, i.p., lowest dose tested (3 μg/kg)), this compound had a duration of action of 1.5 h. Further, the “antinociception in the contralateral hindpaw” value in assay [2] is on record as “insignificant antinociception”. For the same compound, the “relief of tactile allodynia (summary in discussion)” value with STZ-diabetic rats (STZ-diabetic rat model of PDN, single i.p. bolus doses) was “potent relief of tactile allodynia”. In addition, in the assay on STZ-diabetic rats (setting [5]), the duration of action was 2 to 3 h, the “onset of action post-dosing” value turned out to be 0.5 h, the “relief of tactile allodynia” value is listed as “significant relief of tactile allodynia” and the “time of peak anti-allodynia post-dosing” value was in the range of 0.75 to 1.0 h. In addition, the “reversal of tactile allodynia in the hindpaws” value in the assay on STZ-diabetic rats (STZ-diabetic rats, i.p., higher doses tested) is recorded as “fully reversed”. In addition, in the assay on STZ-diabetic rats (STZ-diabetic rats, single i.p. bolus doses), the “onset of anti-allodynia (summary in discussion)” value is “relatively rapid onset”. In addition, the “extent and duration of the anti-allodynic response, oral compared with i.p. route” value in assay [3] was “similar”.
